The test system of one data set is EMT6.5 cells. As to the kind of experiment: EMT6.5 orthotopic mammary tumour model, i.v. therapy. The data set is classed as in vivo, mouse. As to the method: Balb/c mice (n=12) were implanted orthotopically with 100,000 EMT6.5 cells into the 4th inguinal mammary gland and established tumours monitored by calliper measurement. When tumours were ˜200 mm^3 the mice were randomized to either one of two therapeutic arms (n=6 per arm); 1) compound A108 (10 μg, per mouse), or 2) Vehicle (saline) control. Therapy was administered intravenously to tumour bearing mice in three doses, three days apart. All mice completed therapy and were culled 21 days after tumour implant. The primary tumours, lungs and spleens were recovered and weighed. Lungs were analysed by real time quantitative PCR (RTQ-PCR) for evaluation of metastatic burden. Body weight was measured throughout the experiment.

For data set [1] the following is noted: cited from earlier work; for IL-10 and Tregs / anti-tumour activity: subcutaneous or intraperitoneal administration (Yamazaki et al. 2011).

For `CCCCCCCCCCCCCCCC(=O)OC[C@H](CSC[C@H](N)C(=O)N[C@@H](CO)C(=O)NCCOCCOCCOCCOCCOCCOCCOCCOCCOCCOCCOCCOCCOCCOCCOCCOCCOCCOCCOCCOCCOCCOCCOCCOCCOCCOCCOCCOCCC(=O)NCC(N)=O)OC(=O)CCCCCCCCCCCCCCC` [A108], the severe weight loss entry with EMT6.5 cells (10 μg per mouse i.v., three doses) is recorded as “No severe weight loss was observed”. Besides, the “body weight on initial therapy” value with EMT6.5 cells (10 μg per mouse i.v., three doses three days apart, data not shown) is “induced an acute weight loss”. In the data set with EMT6.5 cells (following cessation of therapy), the “reversibility of weight loss” value was “reversible following cessation of therapy”.

Regarding Pam2CysSK4, the “myeloid derived suppressor cells” value in data set [1] (intravenous administration (Maruyama et al. 2015)) is “promotes myeloid derived suppressor cells”. In addition, in data set [1], the “IL-10 and Tregs” value was “induce IL-10 and Tregs”; the anti-tumour activity result is recorded as “no anti-tumour activity”.

Take MALP2: in data set [1], the “IL-10 and Tregs” value is “induce IL-10 and Tregs”; the anti-tumour activity result was “no anti-tumour activity”.
